Assay: gradient 5% acetonitrile 3 min, to 50% in 2 min, to 85% in 15 min, held 3 min, 100 µL/min
Details: column: Zorbax Extend-C18 2.1 x 50 mm; eluents: water / acetonitrile, 0.1% formic acid
Procedure, shortened: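 Retention time was recorded from adduct peaks, which were picked computationally and each inspected manually. Pure standards ran in mixtures of ~100 molecules on HPLC coupled to a quadrupole time-of-flight mass spectrometer, in positive and negative ionization mode, through a Zorbax Extend-C18 column (2.1 × 50 mm, 1.8 μm) at 100 μL/min. Eluents were water and acetonitrile, each with 0.1% formic acid.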

Row | Compound | RP-LC retention time
1 | COC(=O)c1c2c(nc3ccccc13)CCN(C(=O)Nc1cc(OC)ccc1OC)C2 | 839 s
2 | O=C(Nc1cccc(Cl)c1)C1CCCN1S(=O)(=O)c1cccc2nsnc12 (stereo not given) | 949 s
3 | CC(NC(=O)Cc1c(F)cccc1Cl)C(=O)N1CCN(c2ccccn2)CC1 (stereo not given) | 599 s
4 | Cc1ccc(CNc2nnc(N3CCOCC3)c3ccccc23)cc1 | 678 s
5 | CCc1ccc(S(=O)(=O)N2CCc3nc(-c4ccc(OC)cc4)ncc3C2)cc1 | 1140 s
6 | CCCN1C(=O)c2cccnc2Sc2cc(C(=O)N3CCC(C)CC3)ccc21 | 856 s
7 | COc1ccc(OC)c(CNC(=O)C2CCN(Cc3cn(C)c4ccc(Cl)cc34)CC2)c1 | 717 s
8 | Cc1cccc(NC(=O)c2cn3c(n2)CCCC3)c1C | 603 s
9 | CC(C)(C)c1ccc(OCC(O)CN)cc1 (stereo not given) | 585 s
10 | Cc1nn(C(C)C)c(C)c1-c1cc(C(=O)O)[nH]n1 | 617 s
11 | O=C(CN1c2ccc(F)cc2-c2ccccc2S1(=O)=O)N1CCCCCC1 | 958 s
12 | CCOc1ccc(-n2cc(C(=O)OCC(=O)OC)c3ccccc3c2=O)cc1 | 1000 s
13 | CC1(C)C(=O)N(CCN2CCC(C(=O)c3ccc(F)cc3)CC2)c2ccccc21 | 755 s
14 | CC(CCc1ccco1)NC(=O)C1CCN(c2nc(-c3ccc(Cl)cc3)no2)CC1 (stereo not given) | 1080 s
15 | Cc1nn2c(CNS(=O)(=O)c3ccccc3)c(-c3ccccc3)nc2s1 | 818 s
16 | O=C(N1CCc2ccccc2C1)C1(c2ccccc2)CCOCC1 | 891 s
17 | Cc1cc(Cl)ccc1-n1ncc2c(N3CCN(C)CC3)ncnc21 | 633 s
18 | O=C(Cn1ccn2nc(-c3ccccc3)c(CO)c2c1=O)N1CCCc2ccccc21 | 861 s
19 | Cn1nc(-c2nnc(-c3ccc(F)cc3)o2)c2c1CCN(S(=O)(=O)c1ccc(F)c(Cl)c1)C2 | 990 s
20 | Cc1nc(-c2ccc3c(c2)n(CC(=O)NC2CCCCC2)c(=O)n3C(C)C)no1 | 857 s
21 | CCCCNC(=O)C1CCCN(c2nnc3c(Cl)cccn23)C1 (stereo not given) | 594 s
22 | COc1ccc(CNC(=O)NCc2nnnn2-c2ccc(F)c(F)c2)cc1OC | 678 s
23 | COC(=O)c1c(NC(=O)CSc2nnnn2-c2ccccc2OC)sc2c1CCC2 | 1060 s

Row | Compound | RP-LC retention time
24 | Cc1ccc(NC(=O)N2CCC3(CC2)NC(=O)c2cc(F)ccc2N3C)cc1C | 832 s
25 | COCCN1C(=O)[C@H]2CN(Cc3ccc(C)c(C)c3)C[C@H]2C1=O | 577 s
26 | COc1ccc(CCS(=O)(=O)N(Cc2ccsc2)C2CC2)cc1 | 1000 s
27 | CNC(=O)Oc1ccc(N(C)C)cc1C(C)C | 642 s
28 | Cc1ccc(Cl)cc1N1C(=O)CN(S(C)(=O)=O)CC1(C)C(=O)NC1CCCCCCC1 (stereo not given) | 980 s
29 | CCN1CCN(c2ccc(NC(=O)c3ccc(Cl)cc3)cn2)C1=O | 775 s
30 | CCc1nc2cc(N3CCC(C(=O)Nc4ccc(OC)cc4)CC3)cnc2nc1CC | 827 s
31 | Cn1c(=O)n(C)c2cc(S(=O)(=O)c3ccc(F)cc3)c(NC(=O)Cc3ccc(F)cc3)cc21 | 874 s
32 | Cc1nc(-c2nnc(NC(=O)Cn3cnc4c3c(=O)n(C)c(=O)n4C)o2)cs1 | 569 s
33 | O=C(Cn1nc2c(Oc3ccccc3)nccn2c1=O)Nc1cc(C(F)(F)F)ccc1Cl | 960 s
34 | Cc1nnc(N2C(=O)C(O)=C(C(=O)c3ccco3)C2c2ccc([N+](=O)[O-])cc2)s1 (stereo not given) | 793 s
35 | CCn1ncn2cc(S(=O)(=O)Nc3ccc(C)cc3)cc2c1=O | 882 s
36 | CCCCNC(=O)C1(c2ccc(NC(=O)C(C)C)cc2)CCCCC1 | 935 s
37 | O=C(C1CCCC1)N1CCCC(c2nn[nH]n2)C1 (stereo not given) | 636 s
38 | CC(=O)Nc1ccc(C(=O)N2CCC3(CC2)N=C(c2ccccc2)NO3)cc1 | 664 s
39 | Cc1ccc(NC(=O)C2(C)Oc3cccnc3NC2=O)cc1C (stereo not given) | 760 s
40 | COc1cc(CNC(=O)C2CCCN(c3cc(=O)n(C)c(=O)n3C)C2)cc(OC)c1OC (stereo not given) | 636 s
41 | COCCNC(=O)C1CCCN(c2cc(=O)n(C)c(=O)n2C)C1 (stereo not given) | 567 s
42 | CCN1CCC(N(Cc2cccs2)C(=O)Nc2ccccc2C)CC1 | 646 s
43 | O=S(=O)(c1cc(-c2noc(C3CCCC3)n2)cs1)N1CCCCC1 | 1240 s
44 | O=C(NC1CCCCCC1)C1CCN(C(=O)c2ncn3c2COC(c2ccc(F)cc2)C3)CC1 (stereo not given) | 846 s
45 | COc1ccc(OC)c(CNC(=O)c2c(N3CCCC3=O)c3cc(F)ccc3n2C)c1 | 904 s
46 | O=C(C1CCN(c2nc3ccc(-c4ccccc4)nc3s2)CC1)N1CCCCC1 | 1040 s

Row | Compound | RP-LC retention time
47 | CC(CCc1ccccc1)NCc1ccc2c(c1)n(C)c(=O)n2C (stereo not given) | 610 s
48 | CCOC(=O)C1=C(C)N(CC(=O)NC2CCCC2)c2ncnn2C1c1ccccc1 (stereo not given) | 666 s
49 | Cc1ccc2nc(-c3c(F)cccc3Cl)c(Nc3ccccc3C)n2c1 | 777 s
50 | Cc1nc(-c2ccc(-c3noc(CNS(=O)(=O)c4ccccc4)n3)cc2)cs1 | 960 s
51 | Cc1ccc(NC(=O)CN2C(=O)COc3ccc(C(=O)N(C)C)cc32)nc1 | 612 s
52 | Cc1nc(Nc2ccc(F)cn2)sc1C(=O)N1CCN(c2ccccc2)CC1 | 875 s
53 | CCn1c(C(=O)N2CCCC(C(=O)N3CCN(c4ccccc4)CC3)C2)cc2sccc21 (stereo not given) | 970 s
54 | Cc1ccc(C2(O)C(=O)N(CC(=O)Nc3ccc(F)cc3F)c3ccccc32)cc1 (stereo not given) | 715 s
55 | COc1ccc(-c2cn3cccnc3n2)cc1NC(=O)c1ccc(Br)cc1 | 738 s
56 | O=c1c2cc(-c3ccccc3Cl)nn2cnn1Cc1nc(-c2ccc(F)cc2)no1 | 1140 s
57 | O=C(COc1cc(O)c2c(=O)c3ccccc3oc2c1)c1ccc(Br)cc1 | 1280 s
58 | CCn1nnc2cc(-c3noc(-c4ccc(NC(C)=O)cc4)n3)ccc21 | 812 s
59 | O=C(Nc1ccc(N2CCOCC2)cc1)C1CCN(c2cncnc2N2CCCC2)CC1 | 602 s
60 | CCOC(=O)CNC(=O)NCc1cccn1Cc1ccc(Cl)cc1 | 843 s
61 | CS(=O)(=O)NCc1ccc2c(c1)CCN2C(=O)c1ccc(Cl)cc1 | 794 s
62 | Cc1csc(CN2CCN(C(=O)CC(c3ccccc3)c3ccccc3)CC2)n1 | 665 s
63 | CCCn1cc(-c2ccncc2)cc1C(=O)Nc1ccc(OC)c(OC)c1 | 654 s
64 | COC(=O)c1c(C)[nH]c(C(=O)N2CCCC(C(=O)NCc3cccc(Br)c3)C2)c1C (stereo not given) | 813 s
65 | CCc1cccc(C)c1NC(=O)C1CCN(S(=O)(=O)c2ccc3c(c2)NC(=O)CO3)CC1 | 818 s
66 | Cc1nn(-c2ccccc2)c(C)c1S(=O)(=O)N1CCC(C(=O)Nc2cccc(Cl)c2)CC1 | 1040 s
67 | COCCOc1ccc2c(n1)CCN(C(=O)NCCC(C)C)C2 | 762 s
68 | O=C(Cc1csc2nc(-c3ccccc3)cn12)Nc1cccc(F)c1 | 805 s
69 | CCC(=O)Nc1ccc(C2(C(=O)NCCC(C)C)CCCCC2)cc1 | 936 s

Row | Compound | RP-LC retention time
70 | O=C(NCCN1CCN(C(=O)NCCCc2ccccc2)CC1)c1ccc2c(c1)OCO2 | 581 s
71 | CCc1nc(-c2ccnc(N3CCCC3)c2)no1 | 616 s
72 | CCCCn1cc(S(=O)(=O)N2CCN(c3ccccc3)CC2)c2cccnc21 | 1120 s
73 | CCOC(=O)C1CCN(C(=O)CCC2CCN(c3cc(NC4CC4)ncn3)CC2)CC1 | 586 s
74 | COCCCNC(=O)c1c(OCC2CC2)cc(=O)n2c1CCCCC2 | 611 s
75 | COc1ccc(CNC(=O)Cn2c(C)nc3c(sc4nc(-c5ccccc5)ccc43)c2=O)cc1 | 970 s
76 | Cc1cc(=O)n(CC(=O)Nc2ccc(Cl)cc2)c(-c2ccccc2)n1 | 1080 s
77 | O=C(NCc1ccc(Cl)cc1)c1cc2sccc2n1Cc1ccc(F)cc1 | 1170 s
78 | CCCCNc1ncc(C(=O)O)c(-c2ccncc2)n1 | 612 s
79 | Cc1sc2ccn(Cc3ccc(F)cc3)c(=O)c2c1C(=O)NCC1CC1 | 858 s
80 | CCCCn1c(=O)c2ccccc2n(Cc2nc(-c3cc(OC)cc(OC)c3)no2)c1=O | 1160 s
81 | Cc1cccc(-n2c(=O)c3c(cc(C)n3C)n(CC(=O)Nc3cccc(Cl)c3C)c2=O)c1 | 960 s
82 | Cc1cc(Cl)ccc1S(=O)(=O)N1CCC2(CC1)NCCCN=C2NC1CCCC1 | 810 s
83 | Cc1csc(C(=O)NCC2CCN(C(=O)COc3ccccc3)CC2)c1 | 734 s
84 | CCCCN1CC(c2nc3ccccc3n2CC(=O)N2CCOCC2)CC1=O (stereo not given) | 598 s
85 | CCCC(=O)NCCc1c(I)[nH]c2ccc(OC)cc12 | 849 s
86 | CCc1nc(-c2cccc(-c3noc(COc4cccc(C)c4)n3)c2)cs1 | 1390 s
87 | COc1ccc(-c2cc(C(=O)N3CCC(NC(=O)C4CCCC4)CC3)[nH]n2)cc1 | 713 s
88 | COc1cc(OC)cc(C(=O)NCC2(O)CCOCC2)c1 | 589 s
89 | N#Cc1cccc(C(=O)N2CCCn3nc(-c4cccs4)cc3C2)c1 | 720 s
90 | COc1cc(C2=NN(C(C)=O)C(c3cccnc3)O2)cc(OC)c1OC (stereo not given) | 701 s
